# In paper PMC5700055, “Structural basis of cholesterol binding by a novel clade of dendritic cell modulators from ticks” (Scientific Reports, 2017):
# Molecular target: T1, Japanin (Rhipicephalus appendiculatus, UniProt M1MR49)
# T1 construct: polyhistidine-tagged recombinant secretory lipocalin, Sf9 baculovirus; 18 kDa; N-glycosylated at Asn35 and Asn131; homodimer; disulphides Cys28-Cys150, Cys114-Cys138; modelled residues 1-154
# T1 sequence (M1MR49 25-176): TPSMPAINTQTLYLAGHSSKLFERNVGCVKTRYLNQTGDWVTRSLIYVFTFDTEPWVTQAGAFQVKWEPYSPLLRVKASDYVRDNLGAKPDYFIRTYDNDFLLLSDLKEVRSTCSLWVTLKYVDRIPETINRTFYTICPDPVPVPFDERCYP
# Test: X-ray crystallography ([…] and […] Å)
# Type: binding
# Settings: co-purified ligand, no cholesterol added; one per monomer in closed lipocalin barrel pocket; crystals pH 6.9-7.2 (4boe) and pH 4.5 (4bqu), 21 °C
structure (smiles),measurement,value
"CC(C)CCC[C@@H](C)[C@H]1CC[C@H]2[C@@H]3CC=C4C[C@@H](O)CC[C@]4(C)[C@H]3CC[C@]12C [CLR, cholesterol]",X-ray crystallography (2.2 and 2.4 Å),each molecule in the crystals binds one molecule of cholesterol
